Drawing on PubChem BioAssay (NCI), this text covers TGI for 4 molecules.

Molecules are shown by their SMILES.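 Five concentrations, 48 hours, 96-well plates. TGI: concentration producing complete growth inhibition.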 Bounds are passed on as bounds.

Among the test systems are M14 melanoma; CAKI-1 renal; SF-539 CNS; SNB-19 CNS; MALME-3M melanoma; K-562 leukemia; EKVX NSCLC; SN12C renal; KM12 colon; SNB-75 CNS.
What all share (assay): NCI tumour cell line growth inhibition, 48 h

As to `C=CCN(c1cc(OC)c2[nH]cc(C)c2c1[N+](=O)[O-])S(C)(=O)=O`, the TGI with M14 melanoma, with CAKI-1 renal, with SF-539 CNS, with SNB-19 CNS, in the test with MALME-3M melanoma and with K-562 leukemia was > 100 µM throughout. The TGI with EKVX NSCLC, in the test on SN12C renal, in the test on KM12 colon and in the test on SNB-75 CNS was > 100 µM in each case.

Turning to `CCOc1ccc2nc(NC(NC(=O)c3cccnc3)(C(F)(F)F)C(F)(F)F)sc2c1`, the TGI with M14 melanoma, with CAKI-1 renal, in the test on SF-539 CNS, with SNB-19 CNS, in the test with MALME-3M melanoma and in the test on K-562 leukemia was > 100 µM in each case. The TGI with EKVX NSCLC is 79.4 µM; in the test on SN12C renal, > 100 µM; with KM12 colon, > 100 µM; with SNB-75 CNS it was 68.2 µM.

Consider `N=c1c2c(=S)n(-c3ccccc3)c(=S)n(-c3ccccc3)c2nc(SCCN2CCOCC2)n1-c1ccccc1`, for which the TGI was 3.8 µM in the test with M14 melanoma; 3.99 µM with CAKI-1 renal; 8.83 µM with SF-539 CNS; 24 µM in the test on SNB-19 CNS; 3.49 µM with MALME-3M melanoma; 4.18 µM in the test with K-562 leukemia. In addition, the TGI in the test with EKVX NSCLC is 9.58 µM; in the test with SN12C renal it was 3.71 µM; in the test with KM12 colon, 6.09 µM; with SNB-75 CNS it was 4.54 µM.

Regarding `C=C(C)[C@@H]1CCC2=C[C@H](CC(C)=CC3=CC(C)=C(O3)[C@@H]1OC)OC2=O`, the TGI with M14 melanoma, in the test with CAKI-1 renal, with SF-539 CNS, in the test on SNB-19 CNS, in the test with MALME-3M melanoma and in the test with K-562 leukemia was > 100 µM throughout. The TGI with EKVX NSCLC, in the test with SN12C renal, with KM12 colon and in the test on SNB-75 CNS was > 100 µM in each case.
